US20190192613A1, “COMPOSITION FOR PREVENTING OR TREATING HYPEROXIA-INDUCED LUNG INJURY COMPRISING WKYMVM PEPTIDE AS AN ACTIVE INGREDIENT” (SAMSUNG LIFE PUBLIC WELFARE FOUNDATION, priority 2017, published 2019)

Tests used:
[1] = Animal death during the hyperoxia experiment; type: in vivo, mouse; conditions: neonatal mice, i.p. every day P5 to P8, entire experiment
Protocol: Pregnant C57/BL6 wild-type mice (National Experimental Animal Center, Pocheon, Korea) were raised in individual cages by offering a free access to water and food to each mouse, the mice spontaneously gave birth to babies, and then the offsprings were grown in a chamber under hyperoxia (80% O2) conditions (P) or normal oxygen (21% O2) conditions by day 14. At this time, environmental humidity and temperature were maintained at 50% and 24° C., and to investigate the effect of activated FPR2, WKYMVm (SEQ ID NO: 1) or physiological saline (vehicle, 20 μl) was intraperitoneally administered to each mouse every day from P5 to P8. In this case, death of the animals was not observed throughout the entire experimental processes.

[2] = test system: bronchopulmonary dysplasia in neonatal mice; conditions: Martin et al. 2014; cited from earlier work

| Compound | death of the animals [1] | alveolar damage caused by bronchopulmonary dysplasia [2] |
| --- | --- | --- |
| CSCC[C@H](NC(=O)[C@H](Cc1ccc(O)cc1)NC(=O)[C@H](CCCCN)NC(=O)[C@@H](N)Cc1c[nH]c2ccccc12)C(=O)N[C@H](C(=O)N[C@H](CCSC)C(=O)O)C(C)C [WKYMVm, Trp-Lys-Tyr-Met-Val-D-Met] | not observed |  |
| CCCCC[C@H](O)/C=C/C=C\C=C\C=C\[C@@H](O)[C@@H](O)CCCC(=O)O [lipoxin A4] |  | improve alveolar damage |
| CC/C=C\C[C@H](O)/C=C/C=C\C=C\C=C\[C@@H](O)[C@@H](O)C/C=C\CCC(=O)O [resolvin D1] |  | improve alveolar damage |
